This note sets out measurements from ChEMBL document CHEMBL1147921, “SAR studies on thiazolo[4,5-d]pyrimidine based CXCR2 antagonists involving a novel tandem displacement reaction” (Bioorg Med Chem Lett, 2007).

Converted amounts (≈) assume the structure as drawn. Where only a bound is given, the exact number is not on record here.

Data set [1] deals with T1, C-X-C chemokine receptor type 2 (Homo sapiens, UniProt P25025).
T1 sequence (P25025 whole entry): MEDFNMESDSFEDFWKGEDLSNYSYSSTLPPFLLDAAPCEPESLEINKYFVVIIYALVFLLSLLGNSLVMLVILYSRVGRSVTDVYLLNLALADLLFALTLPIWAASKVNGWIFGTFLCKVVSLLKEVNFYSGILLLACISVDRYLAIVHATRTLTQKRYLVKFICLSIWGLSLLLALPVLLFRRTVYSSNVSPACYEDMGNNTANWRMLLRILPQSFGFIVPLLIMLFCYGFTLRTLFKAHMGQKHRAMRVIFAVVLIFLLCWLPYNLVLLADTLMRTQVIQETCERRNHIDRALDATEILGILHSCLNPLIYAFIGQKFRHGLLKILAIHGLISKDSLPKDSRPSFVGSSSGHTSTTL
The data set is described as follows: Displacement of [125I]IL8 from human CXCR2 expressed in HEK 293 by SPA. The format is cell-based, HEK293. In general terms: Loss of bound radioactivity is the signal in a displacement assay; it reports binding, not function.

Data set [2] has as its target T1, C-X-C chemokine receptor type 2. Description: Antagonistic activity against human CXCR2 in neutrophils assessed as blockade of GROalpha stimulated calcium mobilisation by FLIPR. In kind it is functional. (Calcium assays in cells follow changes in intracellular calcium, usually with a dye or a luminescent sensor.)
A short description of data set [3]: Permeability across human Caco-2 cell membrane. The format is ADME, cell-based. As to conditions: read-out: permeability.
Data set [4] can be described thus: Protein binding in human plasma. In kind it is ADME, cell-free. As to conditions: read-out: PPB (converted).
Data set [5] is described as follows: Permeability from apical to basolateral side of the human Caco-2 cell membrane. In kind it is ADME, cell-based. The settings on record: read-out: permeability. For orientation: Caco-2 monolayers are a common model of the intestinal barrier.
A short description of data set [6]: Bioavailability in po dosed rat. In kind it is ADME, organism-based. The settings on record: in vivo.
A short description of data set [7]: Volume of distribution at steady state in iv dosed rat. In kind it is ADME, organism-based. The settings on record: in vivo, read-out: Vss.
Data set [8] is described as follows: Permeability from basolateral to apical side of the human Caco-2 cell membrane. As to conditions: read-out: permeability. In kind it is ADME, cell-based.
Data set [9] in a line: Solubility at pH 7.4. The format is physicochemical. The settings on record: buffer.
Data set [10] can be described thus: Half life in iv dosed rat. In kind it is ADME, organism-based. The settings on record: in vivo.

What is called IC50 is the concentration that inhibits the measured activity by half. For the molecule `C[C@H](CO)Nc1nc(SCc2ccccc2F)nc2nc(N)sc12`, in data set [1], the IC50 is 12.6 nM.

For `C[C@H](CO)Nc1nc(SCc2cccc(F)c2)nc2nc(N)sc12`, in data set [1], the IC50 was 15.8 nM.

In turn, `C[C@H](CO)Nc1nc(SCc2ccccc2Cl)nc2nc(N)sc12` gave an IC50 in data set [1] of 31.6 nM.

In [1], `C[C@H](CO)Nc1nc(SCc2cccc(Cl)c2Cl)nc2nc(N)sc12` showed an IC50 of 15.8 nM.

`CC(C)(CO)Nc1nc(SCc2ccco2)nc2nc(N)sc12` gave an IC50 in data set [1] of 100 nM.

For the molecule `C[C@H](CO)Nc1nc(SCc2ccco2)nc2nc(N)sc12`, the IC50 in data set [1] is 31.6 nM.

For `Cc1nc(CSc2nc(NC(C)(C)CO)c3sc(N)nc3n2)cs1`, the IC50 in data set [1] is 1000 nM.

`Nc1nc2nc(SCc3cccc(F)c3F)nc(N3CCCC3CO)c2s1` (configuration not stated) had an IC50 in [1] of over 1000 nM.

`CNc1nc2nc(SCc3cccc(F)c3F)nc(N[C@H](C)CO)c2s1`: the IC50 in data set [1] was 7.94 nM.

In the case of `CCN(CC)c1nc2nc(SCc3cccc(F)c3F)nc(NC(CO)CO)c2s1`, the IC50 in data set [1] was 1580 nM.

Turning to `Nc1nc2nc(SCc3cccc(F)c3F)nc(NC(CO)CO)c2s1`, the IC50 in data set [1] was 31.6 nM.

In data set [1], `CC[C@H](CO)Nc1nc(SCc2cccc(F)c2F)nc2nc(N)sc12` gave an IC50 of 25.1 nM.

For the molecule `CC(C)(CO)Nc1nc(SCc2cccc(F)c2F)nc2nc(N)sc12`, the IC50 in data set [2] was 15.8 nM; in [1], 25.1 nM. The Papp in data set [3] amounted to 3.6 ×10⁻⁶ cm/s. Besides, the fraction unbound in data set [4] was 0.016.

Molecule `C[C@@H](O)[C@@H](CO)Nc1nc(SCc2cccc(F)c2F)nc2nc(N)sc12` showed a half-maximal inhibitory concentration (IC50) in data set [1] of 15.8 nM.

`CC(CO)(CO)Nc1nc(SCc2cccc(F)c2F)nc2nc(N)sc12` gave a half-inhibitory concentration (IC50) in data set [1] of 79.4 nM.

In [1], `Cc1nc(CSc2nc(N[C@H](C)CO)c3sc(N)nc3n2)cs1` showed an IC50 of 126 nM.

In data set [1], `C[C@H](CO)Nc1nc(SCc2cccc(Cl)c2)nc2nc(N)sc12` showed an IC50 of 12.6 nM.

Consider `CC[C@H](CO)Nc1nc(SCc2cccc(F)c2F)nc2nc(NC(C)C)sc12`, for which the IC50 in [1] was 100 nM.

Turning to `CCN(CC)c1nc2nc(SCc3cccc(F)c3F)nc(N[C@H](C)CO)c2s1`, the IC50 in data set [1] was 398 nM.

As to `C[C@H](CO)Nc1nc(SCc2cccc(F)c2F)nc2nc(NC3CC3)sc12`, the IC50 in data set [1] is 20 nM.

For orientation: bioavailability means dose-corrected exposure relative to a reference, in per cent. Lower therefore signals little systemic uptake. By solubility is commonly meant how much of the substance goes into solution per volume. Read a low solubility as a poorly soluble substance. Broadly, the half-life is the time in which the quantity being followed falls by half. A lower half-life goes with rapid decline. Consider `C[C@H](CO)Nc1nc(SCc2cccc(F)c2F)nc2nc(N)sc12`, for which, in [5], the Papp A→B is 2.47 ×10⁻⁶ cm/s. In data set [6], this molecule yielded a bioavailability of 9%. In data set [7], the Vd turned out to be 1.03 L/kg. In addition, the Papp B→A in [8] turned out to be 13.7 ×10⁻⁶ cm/s. For the same molecule, the solubility in data set [9] came out at 1.5 µg/mL (≈ 3.91 µM). For the same molecule, the half-life in [10] is 1.2 h.

In data set [1], `C[C@H](CO)Nc1nc(SCc2cccc(Cl)c2F)nc2nc(N)sc12` gave an IC50 of 3.98 nM.

On to `OCC(CO)Nc1nc(SCc2cccc(F)c2F)nc2nc(NC3CC3)sc12`, for which the IC50 in data set [1] was 100 nM.

`CC(C)Nc1nc2nc(SCc3cccc(F)c3F)nc(N[C@H](C)CO)c2s1` had an IC50 in [1] of 31.6 nM.
